Test results from patent US12528816B2, “Substituted imidazo [1,2-b] pyridazines and [1, 2, 4] triazolo [ 4,3-b] pyridazines as camkii inhibitors” (Cardurion Pharmaceuticals, INC., priority 2020, dated 2026).

Molecular target: T1, human CaMKIIδ (Homo sapiens, UniProt Q13557)
T1 construct: Full-length, glutathione-S-transferase(GST)-tagged, human CaMKIIδ was purchased from Carna Biosciences; purchased Carna Biosciences (CaMKIIδ); Wako Pure Chemical Industries (calmodulin) 02-111
Assay: Evaluation of in vitro CaMKII inhibitory activity (binding assay, TR-FRET)
Conditions: human CaMKIIδ, TR-FRET binding assay; class symbols A/B/C; read-out: Act (CaMKII inhibitory activity, binding assay)
Description: Evaluation of In Vitro CaMKII Inhibitory Activity (Binding Assay)
In vitro CaMKIIδ inhibitory activity was evaluated by a binding assay.
Full-length bovine calmodulin was purchased from Wako Pure Chemical Industries (Osaka, Japan). Terbium-labeled anti-GST anti body (Tb-anti-GST Ab) was purchased from Life Technologies (Carlsbad, CA, USA). Fluorescent probe ligand, 5,5-difluoro-7,9-dimethyl-3-(3-oxo-3-((3-((4-(3-(piperazin-1-yl)phenyl)pyrimidin-2-yl)amino)phenyl)amino) propyl)-5H-dipyrrolo[1,2-c:2′,1′-f]
Time-resolved fluorescence resonance energy transfer (TR-FRET) assay
The fluorescent probe ligand, 5,5-difluoro-7,9-dimethyl-3-(3-oxo-3-((3-((4-(3-(piperazin-1-yl)phenyl)pyrimidin-2-yl)amino)phenyl)amino) propyl)-5H-dipyrrolo[1,2-c:2′,1′-f] […] After shaded incubation of the protein-probe mixture on ice for 30 min, the premix was dispensed in the assay plate including test inhibitors with 4 fold dilution series of eight concentrations. After 1 hr incubation at room temperature, TR-FRET signals were measured in duplicate using an EnVision microplate reader (Perkin Elmer, Waltham, MA, USA).
The half maximal inhibitory concentration (IC50) of test compounds was calculated by fitting the data with the logistic equation using XLfit (IDBS, Guildford, UK).

Compared with CCN(CC)CCNC(=O)c1cccc(-c2cnn3ccc(-c4ccc(C#N)c(O[C@@H](C)Cn5cnnn5)c4)nc23)c1 [Example 1, 3-[5-(4-cyano-3-{[(2S)-1-(1H-tetrazol-1-yl)propan-2-yl]oxy}phenyl)pyrazolo[1,5-a]pyrimidin-3-yl]-N-[2-(diethylamino)ethyl]benzamide], C[C@@H](Cn1cnnn1)Oc1cc(-c2ccc3ncn(-c4ncccc4C#N)c3n2)ccc1F [Example 150, 2-[5-(4-fluoro-3-{[(2S)-1-(1H-tetrazol-1-yl)propan-2-yl]oxy}phenyl)-3H-imidazo[4,5-b]pyridin-3-yl]pyridine-3-carbonitrile] is lower in IC50: 10 to 100 nM for the first, less than 10 nM for the second.

First: Cc1nn2ccc(-c3ccc(F)c(O[C@@H](C)Cn4cnnn4)c3)nc2c1-c1cccs1 [Example 57, 1-[(2S)-2-{2-fluoro-5-[2-methyl-3-(thiophen-2-yl)pyrazolo[1,5-a]pyrimidin-5-yl]phenoxy}propyl]-1H-tetrazole]
Second: C[C@@H](Cn1cnnn1)Oc1cc(-c2ccc3ncn(-c4ncn(C)c4C#N)c3n2)ccc1F [Example 173, 4-[5-(4-fluoro-3-{[(2S)-1-(1H-tetrazol-1-yl)propan-2-yl]oxy}phenyl)-3H-imidazo[4,5-b]pyridin-3-yl]-1-methyl-1H-imidazole-5-carbonitrile]
The IC50 of the first is higher: 10 to 100 nM for the first, less than 10 nM for the second.

C[C@@H](Cn1cncn1)Oc1cccc(-c2ccn3ncc(-c4cccs4)c3n2)c1 [Example 61, 1-[(2S)-2-{3-[3-(thiophen-2-yl)pyrazolo[1,5-a]pyrimidin-5-yl]phenoxy}propyl]-1H-1,2,4-triazole] and C[C@@H](Cn1cnnn1)Oc1cc(-c2ccc3ncc(-c4ccccc4C#N)n3n2)ccc1F [Example 121, 2-[6-(4-fluoro-3-{[(2S)-1-(1H-tetrazol-1-yl)propan-2-yl]oxy}phenyl)imidazo[1,2-b]pyridazin-3-yl]benzonitrile] cannot be ordered by IC50: less than 10 nM for the first, less than 10 nM for the second.

Same assay, conditions: in vitro CaMKII inhibitory activity (binding assay), human CaMKIIδ; read-out: Act

C[C@@H](Cn1cnnn1)Oc1cccc(-c2ccc3ncc(-c4ccccc4C#N)n3n2)c1 [Example 239, 2-[6-(3-{[(2S)-1-(1H-tetrazol-1-yl)propan-2-yl]oxy}phenyl)imidazo[1,2-b]pyridazin-3-yl]benzonitrile] and C[C@@H](Cn1cnnn1)Oc1cncc(-c2ccc3ncc(-c4ccccc4C#N)n3n2)c1 [Example 244, 2-[6-(5-{[(2S)-1-(1H-tetrazol-1-yl)propan-2-yl]oxy}pyridin-3-yl)imidazo[1,2-b]pyridazin-3-yl]benzonitrile] cannot be ordered by IC50: less than 10 nM for the first, less than 10 nM for the second.

C[C@@H](Cn1cnnn1)Oc1cc(-c2ccc3ncc(-c4ncccc4C#N)n3n2)ccc1F [Example 247, 2-[6-(4-fluoro-3-{[(2S)-1-(1H-tetrazol-1-yl)propan-2-yl]oxy}phenyl)imidazo[1,2-b]pyridazin-3-yl]pyridine-3-carbonitrile] and C[C@@H](Cn1cnnn1)Oc1cc(-c2ccc3ncc(-c4cnccc4C#N)n3n2)ccc1F [Example 275, 3-[6-(4-fluoro-3-{[(2S)-1-(1H-tetrazol-1-yl)propan-2-yl]oxy}phenyl)imidazo[1,2-b]pyridazin-3-yl]pyridine-4-carbonitrile] cannot be ordered by IC50: less than 10 nM for the first, less than 10 nM for the second.

C[C@@H](Cn1cnnn1)Oc1cccc(-c2ccc3ncc(-c4cnccc4C#N)n3n2)c1 [Example 251, 3-[6-(3-{[(2S)-1-(1H-tetrazol-1-yl)propan-2-yl]oxy}phenyl)imidazo[1,2-b]pyridazin-3-yl]pyridine-4-carbonitrile] and C[C@@H](Cn1cnnn1)Oc1cccc(-c2ccc3ncc(-c4cncnc4C#N)n3n2)c1 [Example 267, 5-[6-(3-{[(2S)-1-(1H-tetrazol-1-yl)propan-2-yl]oxy}phenyl)imidazo[1,2-b]pyridazin-3-yl]pyrimidine-4-carbonitrile] cannot be ordered by IC50: less than 10 nM for the first, less than 10 nM for the second.

C[C@@H](Cn1cnnn1)Oc1cccc(-c2ccc3ncc(-c4cccn(C)c4=O)n3n2)c1 [Example 253, 1-methyl-3-[6-(3-{[(2S)-1-(1H-tetrazol-1-yl)propan-2-yl]oxy}phenyl)imidazo[1,2-b]pyridazin-3-yl]-1,2-dihydropyridin-2-one] and C[C@@H](Cn1cnnn1)Oc1cccc(-c2ccc3ncc(-c4ncccc4C#N)n3n2)c1 [Example 271, 2-[6-(3-{[(2S)-1-(1H-tetrazol-1-yl)propan-2-yl]oxy}phenyl)imidazo[1,2-b]pyridazin-3-yl]pyridine-3-carbonitrile] cannot be ordered by IC50: less than 10 nM for the first, less than 10 nM for the second.

C[C@@H](Cn1cnnn1)Oc1cc(-c2ccc3ncc(-c4c[n+]([O-])ccc4C#N)n3n2)ccc1F [Example 269, (S)-3-(6-(3-((1-(1H-tetrazol-1-yl)propan-2-yl)oxy)-4-fluorophenyl)imidazo[1,2-b]pyridazin-3-yl)-4-cyanopyridine N-oxide] and COc1ccnc(-c2cnc3ccc(-c4ccc(F)c(O[C@@H](C)Cn5cnnn5)c4)nn23)c1C#N [Example 321, 2-[6-(4-fluoro-3-{[(2S)-1-(1H-tetrazol-1-yl)propan-2-yl]oxy}phenyl)imidazo[1,2-b]pyridazin-3-yl]-4-methoxypyridine-3-carbonitrile] cannot be ordered by IC50: less than 10 nM for the first, less than 10 nM for the second.

C[C@@H](Cn1cnnn1)Oc1cccc(-c2ccc3ncn(-c4ncccc4C#N)c3n2)c1 [Example 284, 2-[5-(3-{[(2S)-1-(1H-tetrazol-1-yl)propan-2-yl]oxy}phenyl)-3H-imidazo[4,5-b]pyridin-3-yl]pyridine-3-carbonitrile] and C[C@@H](Cn1cnnn1)Oc1cccc(-c2ccc3ncn(-c4cc(F)ccc4C#N)c3n2)c1 [Example 291, 4-fluoro-2-[5-(3-{[(2S)-1-(1H-tetrazol-1-yl)propan-2-yl]oxy}phenyl)-3H-imidazo[4,5-b]pyridin-3-yl]benzonitrile] cannot be ordered by IC50: less than 10 nM for the first, less than 10 nM for the second.

COc1cc(-c2cnc3ccc(-c4cccc(O[C@@H](C)Cn5cnnn5)c4)nn23)c(C#N)cn1 [Example 289, 6-methoxy-4-[6-(3-{[(2S)-1-(1H-tetrazol-1-yl)propan-2-yl]oxy}phenyl)imidazo[1,2-b]pyridazin-3-yl]pyridine-3-carbonitrile] and COc1ccc(C#N)c(-c2cnc3ccc(-c4cccc(O[C@@H](C)Cn5cnnn5)c4)nn23)n1 [Example 313, 6-methoxy-2-[6-(3-{[(2S)-1-(1H-tetrazol-1-yl)propan-2-yl]oxy}phenyl)imidazo[1,2-b]pyridazin-3-yl]pyridine-3-carbonitrile] cannot be ordered by IC50: less than 10 nM for the first, less than 10 nM for the second.

First: C[C@@H](Cn1cnnn1)Oc1cnnc(-c2ccc3ncc(-c4cc(F)ccc4C#N)n3n2)c1 [Example 298, 4-fluoro-2-[6-(5-{[(2S)-1-(1H-tetrazol-1-yl)propan-2-yl]oxy}pyridazin-3-yl)imidazo[1,2-b]pyridazin-3-yl]benzonitrile]
Second: C[C@@H](Cn1cnnn1)Oc1ccnc(-c2ccc3ncc(-c4cc(F)ccc4C#N)n3n2)c1 [Example 311, 4-fluoro-2-[6-(4-{[(2S)-1-(1H-tetrazol-1-yl)propan-2-yl]oxy}pyridin-2-yl)imidazo[1,2-b]pyridazin-3-yl]benzonitrile]
The IC50 of the first is higher: 10 to 100 nM for the first, less than 10 nM for the second. The second is the more potent here.

COc1ccnc(-c2cnc3ccc(-c4cccc(O[C@@H](C)Cn5cnnn5)c4)nn23)c1C#N [Example 300, 4-methoxy-2-[6-(3-{[(2S)-1-(1H-tetrazol-1-yl)propan-2-yl]oxy}phenyl)imidazo[1,2-b]pyridazin-3-yl]pyridine-3-carbonitrile] and COc1ncnc(-c2cnc3ccc(-c4cccc(O[C@@H](C)Cn5cnnn5)c4)nn23)c1C#N [Example 320, 4-methoxy-6-[6-(3-{[(2S)-1-(1H-tetrazol-1-yl)propan-2-yl]oxy}phenyl)imidazo[1,2-b]pyridazin-3-yl]pyrimidine-5-carbonitrile] cannot be ordered by IC50: less than 10 nM for the first, less than 10 nM for the second.

First: C[C@@H](Cn1cnnn1)Oc1cc(-c2ccc3ncn(-c4cc(F)ccc4C#N)c3n2)ncn1 [Example 305, 4-fluoro-2-[5-(6-{[(2S)-1-(1H-tetrazol-1-yl)propan-2-yl]oxy}pyrimidin-4-yl)-3H-imidazo[4,5-b]pyridin-3-yl]benzonitrile]
Second: C[C@@H](Cn1cnnn1)Oc1cccc(-c2ccc3ncn(-c4cc(F)ccc4C#N)c3n2)n1 [Example 345, 4-fluoro-2-[5-(6-{[(2S)-1-(1H-tetrazol-1-yl)propan-2-yl]oxy}pyridin-2-yl)-3H-imidazo[4,5-b]pyridin-3-yl]benzonitrile]
The IC50 of the first is higher: 10 to 100 nM for the first, less than 10 nM for the second.

C[C@@H](Cn1cnnn1)Oc1cccc(-c2ccc3ncc(-c4cc(F)ccc4C#N)n3n2)n1 [Example 325, 4-fluoro-2-[6-(6-{[(2S)-1-(1H-tetrazol-1-yl)propan-2-yl]oxy}pyridin-2-yl)imidazo[1,2-b]pyridazin-3-yl]benzonitrile] and C[C@@H](Cn1cnnn1)Oc1cncc(-c2ccc3ncc(-c4cc(F)ccc4C#N)n3n2)n1 [Example 326, 4-fluoro-2-[6-(6-{[(2S)-1-(1H-tetrazol-1-yl)propan-2-yl]oxy}pyrazin-2-yl)imidazo[1,2-b]pyridazin-3-yl]benzonitrile] cannot be ordered by IC50: less than 10 nM for the first, less than 10 nM for the second.

C[C@@H](Cn1cnnn1)Oc1nccc(-c2ccc3ncn(-c4cc(F)ccc4C#N)c3n2)n1 [Example 342, 4-fluoro-2-[5-(2-{[(2S)-1-(1H-tetrazol-1-yl)propan-2-yl]oxy}pyrimidin-4-yl)-3H-imidazo[4,5-b]pyridin-3-yl]benzonitrile] gave an IC50 of 10 to 100 nM.
